The values that follow come from US4833134A, “Cephem compounds” (Takeda Chemical Industries, Ltd., priority 1986, dated 1989).

Experiment [1] has as its system Escherichia coli T7. Put plainly: MIC (minimum inhibitory concentration), agar dilution method. It counts as cell-based. Conditions: trypticase soy agar, ca. 10^8 CFU/ml, 37° C., 18 hours. The procedure:
(§1) The MIC value of the test compound was determined by agar dilution method. More specifically, 1.0 ml of an aqueous solution of the test compound diluted serially was poured into a petri dish, to which were added 9.0 ml of trypticase soy agar, followed by mixing. On the mixed agar plate was spread a suspension of the test microorganism (ca. 10^8 CFU/ml), which was incubated at 37° C. for 18 hours. The lowest concentration of the test compound completely inhibiting the growth of the test microorganism was expressed by MIC (minimum inhibitory concentration).

Experiment [2] relates to Staphylococcus aureus 1840. The description is as above. It is filed as cell-based. Conditions: trypticase soy agar, ca. 10^8 CFU/ml, 37° C., 18 hours. As for the experimental part: as §1
(1) Staphylococcus aureus 1840

Counter-ions that a name gives are not always drawn.

As for `CCON=C(C(=O)NC1C(=O)N2C(C(=O)[O-])=C(C[n+]3ccc(SCCCN)cc3)CSC12)c1csc(N)n1` (stereo not drawn) [Example 2, 7β-[2-(2-aminothiazol-4-yl)-(Z)-2-ethoxyiminoacetamido]-3-{[4-(3-aminopropylthio)-1-pyridinium]methyl}-3-cephem-4-carboxylate hydrochloride], the figures for the MIC in experiment [1] and in experiment [2] were 0.2 µg/mL and 0.78 µg/mL, respectively.

A word on the MIC: it is the lowest concentration that inhibits growth of the organism. Read a high MIC as a need for much substance.
